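96-well plates; 48 h exposure; 5 concentrations. Endpoints by linear interpolation between flanking doses. Not reached: highest tested concentration assigned. At the TGI there is no net growth.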
Legend:
Assay in all cases: inhibition of tumour cell growth, NCI panel, 48 h
MCF7 breast = test system: MCF7 breast
SF-539 CNS = test system: SF-539 CNS
SK-MEL-28 melanoma = test system: SK-MEL-28 melanoma
U251 CNS = test system: U251 CNS
SN12C renal = test system: SN12C renal
MDA-N = test system: MDA-N
RPMI-8226 leukemia = test system: RPMI-8226 leukemia
MDA-MB-231 breast = test system: MDA-MB-231 breast
ACHN renal = test system: ACHN renal
HCC-2998 colon = test system: HCC-2998 colon
NCI-H23 lung = test system: NCI-H23 lung
SF-295 CNS = test system: SF-295 CNS
SK-MEL-2 melanoma = test system: SK-MEL-2 melanoma
NCI/ADR-RES ovarian = test system: NCI/ADR-RES ovarian
HS 578T breast = test system: HS 578T breast
CCRF-CEM leukemia = test system: CCRF-CEM leukemia
RXF 393 renal = test system: RXF 393 renal
T-47D breast = test system: T-47D breast
786-0 renal = test system: 786-0 renal
LOX IMVI melanoma = test system: LOX IMVI melanoma
UO-31 renal = test system: UO-31 renal
A498 renal = test system: A498 renal
DU-145 prostate = test system: DU-145 prostate
HT29 colon = test system: HT29 colon
HOP-62 NSCLC = test system: HOP-62 NSCLC
SF-268 CNS = test system: SF-268 CNS
SK-OV-3 ovarian = test system: SK-OV-3 ovarian
MDA-MB-435 = test system: MDA-MB-435
PC-3 prostate = test system: PC-3 prostate
NCI-H460 lung = test system: NCI-H460 lung
A549 NSCLC = test system: A549 NSCLC
OVCAR-5 ovarian = test system: OVCAR-5 ovarian
UACC-257 melanoma = test system: UACC-257 melanoma
MOLT-4 leukemia = test system: MOLT-4 leukemia
SNB-75 CNS = test system: SNB-75 CNS
MALME-3M melanoma = test system: MALME-3M melanoma
HCT-116 colon = test system: HCT-116 colon
NCI-H226 lung = test system: NCI-H226 lung
EKVX NSCLC = test system: EKVX NSCLC
OVCAR-4 ovarian = test system: OVCAR-4 ovarian
OVCAR-8 ovarian = test system: OVCAR-8 ovarian
COLO 205 colon = test system: COLO 205 colon
CAKI-1 renal = test system: CAKI-1 renal
SW-620 colon = test system: SW-620 colon
KM12 colon = test system: KM12 colon
BT-549 breast = test system: BT-549 breast
HCT-15 colon = test system: HCT-15 colon
K-562 leukemia = test system: K-562 leukemia
OVCAR-3 ovarian = test system: OVCAR-3 ovarian
UACC-62 melanoma = test system: UACC-62 melanoma
SNB-19 CNS = test system: SNB-19 CNS
M14 melanoma = test system: M14 melanoma
NCI-H522 lung = test system: NCI-H522 lung
IGROV1 ovarian = test system: IGROV1 ovarian
TK-10 renal = test system: TK-10 renal
HL-60(TB) leukemia = test system: HL-60(TB) leukemia
SK-MEL-5 melanoma = test system: SK-MEL-5 melanoma

Measured: TGI

O=C1c2ccccc2-c2c1c(-c1ccc(F)cc1)nc1ccc3ccccc3c21
> 100 µM: MCF7 breast | SF-539 CNS | SK-MEL-28 melanoma | U251 CNS | SN12C renal | MDA-N | RPMI-8226 leukemia | MDA-MB-231 breast | ACHN renal | HCC-2998 colon | NCI-H23 lung | SF-295 CNS | SK-MEL-2 melanoma | NCI/ADR-RES ovarian | HS 578T breast | CCRF-CEM leukemia | RXF 393 renal | T-47D breast | 786-0 renal | LOX IMVI melanoma | UO-31 renal | A498 renal | DU-145 prostate | HT29 colon | HOP-62 NSCLC | SF-268 CNS | SK-OV-3 ovarian | MDA-MB-435 | PC-3 prostate | NCI-H460 lung | A549 NSCLC | OVCAR-5 ovarian | UACC-257 melanoma | MOLT-4 leukemia | SNB-75 CNS | MALME-3M melanoma | HCT-116 colon | NCI-H226 lung | EKVX NSCLC | OVCAR-4 ovarian | OVCAR-8 ovarian | COLO 205 colon | CAKI-1 renal | SW-620 colon | KM12 colon | BT-549 breast | HCT-15 colon | K-562 leukemia | OVCAR-3 ovarian | UACC-62 melanoma | SNB-19 CNS | M14 melanoma

CC1(C)C2CCC(=O)C1CC2 (stereo unspecified)
> 100 µM: MCF7 breast | SF-539 CNS | NCI-H522 lung | SK-MEL-28 melanoma | U251 CNS | SN12C renal | MDA-N | RPMI-8226 leukemia | MDA-MB-231 breast | ACHN renal | IGROV1 ovarian | HCC-2998 colon | NCI-H23 lung | SF-295 CNS | SK-MEL-2 melanoma | NCI/ADR-RES ovarian | HS 578T breast | CCRF-CEM leukemia | RXF 393 renal | T-47D breast | TK-10 renal | 786-0 renal | LOX IMVI melanoma | UO-31 renal | A498 renal | DU-145 prostate | HT29 colon | HOP-62 NSCLC | HL-60(TB) leukemia | SF-268 CNS | SK-MEL-5 melanoma | SK-OV-3 ovarian | MDA-MB-435 | PC-3 prostate | NCI-H460 lung | A549 NSCLC | OVCAR-5 ovarian | UACC-257 melanoma | MOLT-4 leukemia | SNB-75 CNS | MALME-3M melanoma | HCT-116 colon | NCI-H226 lung | OVCAR-8 ovarian | COLO 205 colon | CAKI-1 renal | SW-620 colon | KM12 colon | HCT-15 colon | K-562 leukemia | OVCAR-3 ovarian | UACC-62 melanoma | SNB-19 CNS | M14 melanoma
